In US6579696B1, “Polymyxin B conjugates” (priority 1992, dated 2003):
≈ marks a conversion by molar mass, not a printed value. Like-named read-outs stand apart in the source and are kept apart here. Ends that are not written are not given here.

How the values were obtained:
[1] = biological target: Fc receptors of the human U937 monocyte/macrophage cell line (human); assay: saturation binding of 125I-IgG to 2×10^5 U937 cells
[2] = biological target: Fc receptors of the human U937 monocyte/macrophage cell line (human); assay: 1×10^-8 M 125I-IgG on 2×10^5 U937 cells, no competitor
[3] = tested on: Staphylococcus epidermidis; assay: MIC and MBC; type: cell-based
S. aureus = assay: MIC testing against S. aureus; type: cell-based, Staph. aureus; details: Staphylococcus aureus
Procedure: 1.5 ml fractions were collected. The fractions in the void volume were pooled and sterile filtered. The activity of the conjugate was determined by standard MIC testing against S. aureus.

[4] = vancomycin after reaction with crosslinker, aqueous solution
Text: Vancomycin in phosphate buffer was reacted with each of the following compounds: sulfosuccinimidyl 6-[3-(2-pyridyldithio)propionamide]hexanoate (“sulfo-LC-SPDP”), m-maleimidobenzoyl-N-hydroxysulfosuccinimide ester (“sulfo-MBS”), sulfosuccinimidyl(4-iodoacetyl)aminobenzoate (“sulfo-SIAB”), and sulfosuccinimidyl 4-(p-maleimidophenyl)butyrate (“sulfo-SMPB”). All four crosslinking agents react with a primary amino group on the vancomycin molecule, resulting in the formation of an amide bond. […] Finally, vancomycin derivatized by sulfo-SIAB posesses an iodo group, which can also react with a sulfhydryl group on either reduced IgG or derivatized IgG, by nucleophilic substitution for the iodo group. […] The mixtures were incubated with agitation at ambient temperature.

E. coli 25922 [5] = type: cell-based; details: Table 42
E. coli H16 [6] = type: cell-based; details: Table 42
E. coli 0111:B4 [7] = tested on: E. coli 0111:B4
E. coli 25922 [8] = tested on: E. coli 25922
E. coli H16 [9] = tested on: E. coli H16
Salmonella 34576 [10] = details: Table 43
avidin (Sigma) [11] = biological target: avidin (Sigma) (UniProt P02701); assay: capture ELISA: PMB-Cys-Biotin on avidin-coated wells, detected with chicken anti-PMB 1/1000; maximally diluted sample of a 5-fold series from 10 ng/ml
Chain of avidin (Sigma) (P02701 25-152 limits assumed): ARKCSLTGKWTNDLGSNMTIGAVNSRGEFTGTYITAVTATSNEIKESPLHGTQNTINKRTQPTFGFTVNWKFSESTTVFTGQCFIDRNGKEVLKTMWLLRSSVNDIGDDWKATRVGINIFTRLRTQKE
E. coli 0111:B4 [12] = type: cell-based; parameters: key: −: no agglutination; +: microagglutination; +++: macroagglutination; details: avidin beads loaded with compound
Procedure: (§1) 100 ul polystyrene beads (Spherotech […], 5% w/v) were aliquoted to two 1.5 mL microcentrifuge tubes, centrifuged 1 min at 12,000 g in microcentrifuge and washed 2×with 1 ml PBS (vortexed and recentrifuged 1-2 min after each wash). The beads were resuspended in 900 ul PBS, and 100 ul of 1 mg/ml solution of avidin (Sigma) added, and the tubes rotated overnight at room temperature. The beads were pelleted, and washed sequentially as described above with 1 ml PBS, PBS+0.5% tween 20 (PBST), and PBS, and each sample resuspended in 200 ul PBS. The samples were pooled and stored at 4 degrees.
(§2) 20 ul avidin coated beads were aliquoted into 2×1.5 ml microcentrifuge tubes, and non-specifically binding sites blocked by rotating with 1 ml PBS+1% BSA for 1 hr at room temperature. […] The samples were pelleted, and washed with 1 ml PBS, repelleted and resuspended with 20 ul PBS. III Bacterial Agglutination Assays
(§3) 5 ul of each resin was added to 20 ul bacteria (1/10 dilution of a saturated overnight culture) in independant depression wells (2 wells/bacteria tested). The samples were incubated 30 min at 37 degrees, swirled, and agglutination scored. (Note that −=no agglutination, +=microagglutination and +++=macroagglutination)

E. coli HB101 [13] = type: cell-based; parameters: key: −: no agglutination; +: microagglutination; +++: macroagglutination; details: avidin beads loaded with compound
Procedure: as §1, §2, §3

Salmonella 34576 [14] = type: cell-based; parameters: key: −: no agglutination; +: microagglutination; +++: macroagglutination; details: avidin beads loaded with compound
Procedure: as §1, §2, §3

E. coli J5 = type: cell-based; parameters: key: −: no agglutination; +: microagglutination; +++: macroagglutination; details: for Agglutination by avidin beads: Table 53
Procedure: as §1, §2, §3
To determine if free Immunoadaptor™ compounds can also stably bind surface exposed bacterial structures, agglutination assays were performed using bacteria prebound to Immunoadaptor™ compounds. The assay was performed with J5 bacteria, since the agglutination signal (see table above) was the strongest with this strain. 40 ul avidin coated resin was blocked for 1 hr at room temperature with 1 ml PBS+1% BSA, pelleted as described above, and resuspended in 40 ul PBS. […] The following assays were performed:
Incubated 1 hr at 37 degrees in depression well, swirled and agglutination scored.
Incubated 10 min at 37 degrees then added 5 ul avidin coated beads. Incubated 1 hr at 37 degrees in depression well, swirled and agglutination scored.
Incubated 15 min at 37 degrees, pelleted cells by centrifugation, washed with 100 ul PBS (resuspended cells with micropipetter) and repelleted. Cells were resuspended in 80 ul PBS, 20 ul aliquots distributed to depression well, 5 ul avidin coated beads added, and, incubated 1 hr at 37 degrees, swirled and agglutination scored.

[15] = tested on: J5 bacteria phagocytosed by J774A.1 mouse macrophage cell line; type: cell-based; details: Table 57; + anti-avidin (1/1000)
[16] = biological target: avidin and chicken anti-PMB antibody (Gallus gallus, UniProt P02701)
Chain of avidin and chicken anti-PMB antibody (P02701 25-152): as the sequence (P02701 25-152 limits assumed) above
Procedure: The capture ELISA was performed as described below. […] The coating suspensions were decanted, and all wells were washed three times using PBS+0.5% Tween 20 (PBST). In order to block non-specific binding sites, 100 ul of 1% BSA (Sigma, St. Louis, Mo.) in PBS (blocking solution) was then added to each well, and the plates were incubated for 1 hr. at 37° C.
The blocking solution was decanted, and duplicate samples of 150 ul of either PMB-Cy-Biotin or PMB-Cy-Fl added to the first well of a dilution series. The initial testing concentration of the premixed conjugate was 10 ng/ml in blocking buffer (see above), followed by 5 fold dilutions in blocking buffer. This was accomplished by serially transferring 30 ul aliquots to 120 ul buffer, mixing, and repeating the dilution into a fresh well. After the final dilution, 30 ul was removed from the well such that all wells contained 120 ul final volume. A total of 2 such dilutions were performed. […] Following this incubation, the serially diluted samples were decanted, and the wells were washed six times using PBST (Phosphate-Buffered Saline with Tween). To each well, 100 ul of 1/1000 diluted chicken anti-PMB antibody or chicken preimmune, diluted in blocking buffer was added, and the plate incubated 1 hr at 37° C. The antibody solutions were decanted and the plates were washed as described above. To each well, 100 ul of 1/1000 diluted rabbit anti-chicken IgG alkaline phosphatase (Sigma) diluted in blocking buffer was added, and the plate incubated 1 hr at 37° C. The antibody solutions were decanted and the plates were washed as described above, substituting 50 nM Na2CO3, pH 9.5 for the PBST in the final wash. The plates were developed by the addition of 100 ul of a solution containing 1 mg/ml para-nitro phenyl phosphate (Sigma, St. Louis, Mo.) dissolved in 50 nM Na2CO3, 10 mM MgCl2, pH 9.5 to each well, and incubating the plates at room temperature in the dark overnight. […] Only the ELISA readings from the maximally diluted samples in each dilution series are shown.

E. coli HB101 [17] = assay: MIC and MBC in broth; type: cell-based; details: Example 38
K. pneumoniae LPS = assay: Polarization of PMB-FITC by LPS; type: binding; details: 50 ul of 1 mg/ml LPS; PMB-FITC 1 to 150
P. aeruginosa LPS = assay: Polarization of PMB-FITC by LPS; type: binding; details: 50 ul of 1 mg/ml LPS; PMB-FITC 1 to 150
R. sphaeroides LPS = assay: Polarization of PMB-FITC by LPS; type: binding; details: 50 ul of 1 mg/ml LPS; PMB-FITC 1 to 150
S. marsecens LPS = assay: Polarization of PMB-FITC by LPS; type: binding; details: 50 ul of 1 mg/ml LPS; PMB-FITC 1 to 150
S. enteriditis LPS = assay: Polarization of PMB-FITC by LPS; type: binding; details: 50 ul of 1 mg/ml LPS; PMB-FITC 1 to 150
S. typhimurium LPS = assay: Polarization of PMB-FITC by LPS; type: binding; details: 50 ul of 1 mg/ml LPS; PMB-FITC 1 to 150
E. coli 011B4 LPS = type: binding; details: 50 ul of 1 mg/ml LPS; PMB-FITC 1 to 150
Text: (§4) The data for this example were generated on a fluorescence polarimeter (FPM-1, provided by Jolley Consulting and Research, Inc.) based on this optical configuration. The instrument and software generates output which includes vertical intensity (IV), horizontal intensity (IH), total intensity (IT) after correction of horizontal intensity by a constant (g), fluorescence polarization in millipolarization unit (mP) and lamp feed-back, a correction for lamp and photomultiplier tube variations.
(§5) Each of ten different lipopolysaccarides (LPS) were dissoved in distilled water at a concentration of 1 mg/ml.

E. coli 026B6 LPS = type: binding; details: 50 ul of 1 mg/ml LPS; PMB-FITC 1 to 150
Text: as §4, §5

S. flexneri LPS = type: binding; details: 50 ul of 1 mg/ml LPS; PMB-FITC 1 to 150
Text: as §4, §5

V. cholera LPS = type: binding; details: 50 ul of 1 mg/ml LPS; PMB-FITC 1 to 150
Text: as §4, §5

E. coli HB101 [18] = tested on: E. coli HB101
[19] = biological target: polymyxin B-cysteine-maleimide-fluorescein (PMB-Cys-Mal-FL) (Bacillus polymyxa); assay: fluorescence intensity of PMB-Cys-Mal-FL with antibody
[20] = biological target: polymyxin B-cysteine-maleimide-fluorescein (PMB-Cys-Mal-FL) (Bacillus polymyxa); assay: fluorescence quenching on PMB-Cys-Mal-FL coated E. coli
[21] = biological target: polymyxin B-cysteine-maleimide-fluorescein (PMB-Cys-Mal-FL) (Bacillus polymyxa); assay: quenching of PMB-Cys-Mal-FL coated on E. coli 0111:B4; antibody 1 ug/ml (without antibody: 40)
[22] = biological target: polymyxin B-cysteine-maleimide-fluorescein (PMB-Cys-Mal-FL) (Bacillus polymyxa); assay: quenching of PMB-Cys-Mal-FL coated on E. coli 0111:B4; antibody 2 ug/ml (without antibody: 40)
[23] = biological target: polymyxin B-cysteine-maleimide-fluorescein (PMB-Cys-Mal-FL) (Bacillus polymyxa); assay: fluorescence polarization, antibody 5×10^-8 M with PMB-Cys-Mal-FL 10^-7 M (free conjugate: 740)
[24] = biological target: polymyxin B-cysteine-maleimide-fluorescein (PMB-Cys-Mal-FL) (Bacillus polymyxa); assay: fluorescence polarization, antibody 5×10^-8 M with PMB-Cys-Mal-FL 10^-7 M (free conjugate: 845)
[25] = biological target: polymyxin B-cysteine-maleimide-fluorescein (PMB-Cys-Mal-FL) (Bacillus polymyxa); assay: quenching of PMB-Cys-Mal-FL coated on E. coli 0111:B4; antibody 22 ug/ml (without antibody: 40)
[26] = biological target: polymyxin B-cysteine-maleimide-fluorescein (PMB-Cys-Mal-FL) (Bacillus polymyxa); assay: fluorescence polarization, antibody 5×10^-8 M with PMB-Cys-Mal-FL 10^-7 M (free conjugate: 32.5 mP)
avidin (Sigma) [27] = biological target: avidin (Sigma) (UniProt P02701); assay: capture ELISA: PMB-Cys-FL on avidin-coated wells, detected with chicken anti-PMB 1/1000
avidin (Sigma) [28] = biological target: avidin (Sigma) (UniProt P02701); assay: capture ELISA: PMB-Cys-FL on avidin-coated wells, chicken preimmune 1/1000 (double control)
[29] = Table 40, first number of the cell

Molecule: 125I-labelled human IgG (New England Nuclear) (antibody)
- saturating concentration [1]: 10 nM
- bound radioactivity (cpm) [2]: 12000 cpm

Molecule: CN[C@H](CC(C)C)C(=O)N[C@H]1C(=O)N[C@@H](CC(N)=O)C(=O)N[C@H]2C(=O)N[C@H]3C(=O)N[C@H](C(=O)N[C@H](C(=O)O)c4cc(O)cc(O)c4-c4cc3ccc4O)[C@H](O)c3ccc(c(Cl)c3)Oc3cc2cc(c3O[C@@H]2O[C@H](CO)[C@@H](O)[C@H](O)[C@H]2O[C@H]2C[C@](C)(N)[C@H](O)[C@H](C)O2)Oc2ccc(cc2Cl)[C@H]1O [Vanco, Vancomycin]
- MBC [3]: 2.5 µg/mL (≈ 1.73 µM)
- MIC (S. aureus): 1 to 2 µg/mL (≈ 0.69 to 1.38 µM)
- MIC (S. aureus; read-out: MIC w/o IgG): 1 µg/mL (≈ 0.69 µM)
- Soluble [4]: Yes

Molecule: ALYKKLLKKLLKSAKKLG [C18G, ala-leu-tyr-lys-lys-leu-leu-lys-lys-leu-leu-lys-ser-ala-lys-lys-leu-gly, reference compound]
- BDA (E. coli 25922 [5]): 1 µg/mL
- BDA (E. coli H16 [6]): 5 to 10 µg/mL
- MIC (E. coli 0111:B4 [7]; 0111:B4): 10 µg/mL
- MIC (E. coli 25922 [8]): 2 to 4 µg/mL
- MIC (E. coli H16 [9]): 30 µg/mL
- MIC (Salmonella 34576 [10]): 5 to 10 µg/mL

Molecule: Biotinylated Cysteinyl PMB (PMB-Cys-Biotin) (peptide)
- absorbance at 410 nm (avidin (Sigma) [11]): 1.25 A410

Molecule: Biotinylated Cysteinyl PMB [PMB-Cys-Biotin]
- Agglutination (E. coli 0111:B4 [12]): −
- Agglutination (E. coli HB101 [13]): +
- Agglutination (Salmonella 34576 [14]): +
- Agglutination by avidin beads (E. coli J5; Chase format): +
- Agglutination by avidin beads (E. coli J5; Premix format): +
- Agglutination by avidin beads (E. coli J5; Wash + Chase format): +
- Agglutination (E. coli J5; avidin beads loaded with compound): +++
- % Macrophage with phagocytosed bacteria [15]: 21%
- Recovered bacterial colonies [15]: 74
- MIC (E. coli 0111:B4 [7]; [29]): 1.0 µg/mL
- ELISA absorbency at 410 nm ([16]; Anti-PMB test antibody, Avidin coated wells, maximally diluted sample): 1.252
- ELISA absorbency at 410 nm ([16]; Anti-PMB, PBS coated wells): 0.016
- ELISA absorbency at 410 nm ([16]; Preimmune, Avidin coated wells): 0.014
- ELISA absorbency at 410 nm ([16]; Preimmune, PBS coated wells): 0.019

Molecule: Limulus antilipopolysaccharide factor [native LALF]
- MIC (E. coli HB101 [17]): 16 µg/mL

Molecule: PMB-5-Thiocabamoyl-fluorescein [PMB-FITC]
- mP (K. pneumoniae LPS): 258.5
- mP (P. aeruginosa LPS): 236.4
- mP (R. sphaeroides LPS): 224.7
- mP (S. marsecens LPS): 262.6
- mP (S. enteriditis LPS): 255.9
- mP (S. typhimurium LPS): 266.8
- mP (E. coli 011B4 LPS): 254.6
- mP (E. coli 026B6 LPS): 70.3
- mP (S. flexneri LPS): 246.3
- mP (V. cholera LPS): 174.8
- MIC (E. coli HB101 [18]; [29]): 0.2 µg/mL
- MIC (E. coli HB101 [18]; Table 44): 0.2 µg/mL

Molecule: mouse monoclonal anti-fluorescein antibody (#4-4-20)
- percent of the intensity signal quenched [19]: 95%
- fraction of fluorescein available to bind the antibody [20]: 0.67
- FLUORESCENCE (AFU) [21]: 16 AFU
- FLUORESCENCE (AFU) [22]: 15 AFU
- IH (horizontal intensity) [23]: 25
- IV (vertical intensity) [24]: 61
- FLUORESCENCE (AFU) [25]: 15 AFU
- mP (millipolarization) [26]: 390 mP

Molecule: polymyxin B-cysteine-maleimide-fluorescein (PMB-Cys-Mal-FL) (peptide)
- absorbance at 410 nm (avidin (Sigma) [27]): 0.033 A410
- absorbance at 410 nm (avidin (Sigma) [28]): 0.01 A410
